The values that follow come from patent US8404687B2, “Disubstituted phthalazine hedgehog pathway antagonists” (Eli Lilly and Company, priority 2008, dated 2013).

Structures can show the parent of a compound that is named as a salt. Some results are limits rather than exact numbers.

A word on the IC50: it is the concentration that gives 50% inhibition. For orientation: inhibition means how much of the control response was suppressed. Lower therefore signals a weak effect.

One series has as its system Gli1 transcript in Daoy cells stimulated with Shh conditioned media. In words: Functional assay for measuring the inhibition of Gli1 in Daoy cells (bDNA). Type of series: cell-based. Conditions: Homo sapiens; Daoy cells treated with Shh-CM, 24 hours incubation with compound, Gli1 transcript by bDNA luminescence. On the procedure: Biological activity is determined using a functional assay in Daoy neuronal cancer cells and measures levels of Gli1 ribonucleic acid via a bDNA (branched deoxyribonucleic acid) assay system (Panomics, Inc., Fremont, Calif.). Gli was originally discovered in a Glioblastoma cell line and encodes a zinc finger protein that is activated by Shh signaling. The maximum response is obtained by inducing Gli1 transcription in the Daoy cells with conditioned medium (human embryonic kidney, HEK-293 cells stably expressing recombinant Shh) for 24 hours and then measuring the amount of stimulated Gli1 transcript. […]
The bDNA assay system utilizes the technology of branched-chain DNA to allow amplification of a target ribonucleic acid (transcript). […] The addition of a chemilumigenic substrate during the amplification step allows for detection using luminescence. […]
Daoy cells are grown to confluency in tissue culture T225-flasks in Daoy growth media containing Minimum Essential Medium (MEM) plus 10% Fetal Bovine Serum (FBS) with […] non-essential amino acids and 1 mM sodium pyruvate. The cells are removed from the T225-flasks using trypsin ethylenediaminetetraacetic acid (EDTA), centrifuged, resuspended in media, and then counted. […]
For `C[C@H]1CN(C(=O)Nc2ccc(F)cc2)CCN1c1nnc(-c2ccc(F)cc2)c2ccccc12` [Example 2, (S)—N-(4-Fluorophenyl)-4-(4-(4-fluorophenyl)phthalazin-1-yl)-3-methylpiperazine-1-carboxamide hydrochloride], the IC50 was approximately 0.42 nM.

For a further series, the target named is T1, CYP3A4 (Homo sapiens, UniProt P08684).
T1 construct: from tissue; host or cells: human liver microsomes
T1 sequence (P08684 whole entry): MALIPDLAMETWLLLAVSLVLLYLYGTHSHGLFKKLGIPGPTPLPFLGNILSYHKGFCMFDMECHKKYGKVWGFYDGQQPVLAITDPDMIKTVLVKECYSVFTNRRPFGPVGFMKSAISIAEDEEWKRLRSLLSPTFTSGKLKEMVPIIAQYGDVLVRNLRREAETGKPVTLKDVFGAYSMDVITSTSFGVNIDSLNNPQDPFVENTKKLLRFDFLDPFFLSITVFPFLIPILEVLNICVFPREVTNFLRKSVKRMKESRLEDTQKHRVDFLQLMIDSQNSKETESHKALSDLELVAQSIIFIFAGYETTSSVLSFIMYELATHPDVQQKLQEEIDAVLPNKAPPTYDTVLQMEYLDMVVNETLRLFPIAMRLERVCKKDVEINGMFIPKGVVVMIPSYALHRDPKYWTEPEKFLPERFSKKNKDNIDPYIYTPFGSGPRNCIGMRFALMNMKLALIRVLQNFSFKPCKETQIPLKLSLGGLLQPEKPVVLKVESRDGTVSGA
Put plainly: CYP3A4 Inhibition Assay. Type of series: in vitro ADME. Conditions: liver microsomes, pH 7.4, probe midazolam (5 μM; formation of 1-OH-midazolam), human liver microsomal preparation, 10 μM inhibitor, 5 μM midazolam substrate. On the procedure:
Incubation samples are prepared by adding a human liver microsomal preparation to the test inhibitor (final concentrations 0.05 mg/mL protein, 10 μM inhibitor in 100 mM NaPO4, pH 7.4 buffer) and mixed. Samples are pre-incubated for approximately five minutes at 37° C. Following the pre-incubation period, the reaction is initiated with the addition of a solution containing NADPH and midazolam, as the enzyme substrate, (final concentration 1 mM NADPH, 5 μM midazolam). After addition of the NADPH solution, the samples are incubated for 3 min at approximately 37° C. Following the incubation period, the reaction is quenched by the addition of 50 μL of methanol (and an internal standard for chromatography) and the samples are mixed well. After quenching the reaction, the mixture is centrifuged at approximately 4000 rpm for 15 min at approximately 5° C. and analyzed by LC/MS analysis.
Samples are analyzed using HPLC/MS with gradient elution on short conventional C18 columns, (Loading Mobile Phase—95/5 Milli-Q H2O/methanol (v/v) with 1% acetic acid. Mobile Phase B—80/20 Milli-Q H2O/methanol (v/v) with 1% acetic acid. Mobile Phase C—5/95 Milli-Q H2O/methanol (v/v) with 1% acetic acid. Rinsing Mobile Phase—75/25 Milli-Q H2O/acetonitrile (v/v).
The samples are injected into a Mass Spectral Analyzer for Selected Ion Monitoring (SIM) at a mass of 342.1 (1-OH-midazolam) and 346.1 (α-hydroxymidazolam-d4 internal standard) using Turbolon Spray under positive conditions. Data are reported as % inhibition of the formation of 1-OH-midazolam in the presence of an inhibitor concentration of 10 μM.
(Microsomes from liver hold many membrane-bound enzymes, among them those of drug oxidation.)
Regarding `CC1CN(C(=O)Nc2ccc(OC(F)(F)F)cc2)CCN1c1nnc(-c2ccc(F)cc2)c2ccccc12` (racemic) [Example 6, (±)-4-(4-(4-Fluorophenyl)phthalazin-1-yl)-3-methyl-N-(4-(trifluoromethoxy)phenyl)piperazine-1-carboxamide hydrochloride], the inhibition at 3 min, 10 μM is less than 45%.
On the same count and under the same terms, in the case of `C[C@H]1CN(c2nnc(-c3ccc(F)cc3)c3ccccc23)CCN1C(=O)Nc1ccc(F)cc1C(F)(F)F` [Example 18, (S)-N-(4-Fluoro-2-(trifluoromethyl)phenyl)-4-(4-(4-fluorophenyl)phthalazin-1-yl)-2-methylpiperazine-1-carboxamide hydrochloride] it was less than 45%; in that of `C[C@H]1CN(c2nnc(-c3ccc(C#N)cc3)c3ccccc23)CCN1C(=O)Nc1ccc(F)cc1F` [Example 26, (S)-4-(4-(4-Cyanophenyl)phthalazin-1-yl)-N-(2,4-difluorophenyl)-2-methylpiperazine-1-carboxamide hydrochloride], less than 45%.
The same measure, in the same setting: in the case of `C[C@H]1CN(c2nnc(-c3ccc(C(F)(F)F)cc3)c3ccccc23)CCN1C(=O)Nc1ccc(F)cc1` [Example 45, (S)-N-(4-Fluorophenyl)-2-methyl-4-(4-(4-(trifluoromethyl)phenyl)phthalazin-1-yl)piperazine-1-carboxamide hydrochloride] it was less than 45%.
As for `C[C@H]1CN(c2nnc(-c3ccc(C(F)(F)F)cc3)c3ccccc23)CCN1C(=O)Nc1ccc(F)cc1F` [Example 47, (S)-N-(2,4-Difluorophenyl)-2-methyl-4-(4-(4-(trifluoromethyl)phenyl)phthalazin-1-yl)piperazine-1-carboxamide hydrochloride], the inhibition at 3 min, 10 μM is less than 45%.
Take `C[C@H]1CN(C(=O)Nc2ccc(OC(F)(F)F)cc2)CCN1c1nnc(-c2ccc(F)cc2)c2ccccc12` [Example 48, (S)-4-(4-(4-Fluorophenyl)phthalazin-1-yl)-3-methyl-N-(4-(trifluoromethoxy)phenyl)piperazine-1-carboxamide hydrochloride]: the inhibition at 3 min, 10 μM was less than 45%.
As to `C[C@H]1CN(C(=O)Nc2ccc(F)cc2C(F)(F)F)CCN1c1nnc(-c2ccc(C#N)cc2)c2ccccc12` [Example 60, (S)-4-(4-(4-Cyanophenyl)phthalazin-1-yl)-N-(4-fluoro-2-(trifluoromethyl)phenyl)-3-methylpiperazine-1-carboxamide hydrochloride], the inhibition at 3 min, 10 μM was less than 45%.
In turn, `C[C@H]1CN(C(=O)Nc2ccc(F)cc2C(F)(F)F)CCN1c1nnc(-c2ccccc2)c2ccccc12` [Example 69, (S)-N-(4-Fluoro-2-(trifluoromethyl)phenyl)-3-methyl-4-(4-phenylphthalazin-1-yl)piperazine-1-carboxamide hydrochloride] had an inhibition at 3 min, 10 μM of less than 45%.
On the same count and under the same terms, in the case of `CC[C@H]1CN(c2nnc(-c3ccc(F)cc3)c3ccccc23)CCN1C(=O)Nc1ccc(F)cc1F` [Example 86, (S)-N-(2,4-Difluorophenyl)-2-ethyl-4-(4-(4-fluorophenyl)phthalazin-1-yl)piperazine-1-carboxamide hydrochloride] it was less than 45%.
Turning to `CC[C@H]1CN(c2nnc(-c3ccc(F)cc3)c3ccccc23)CCN1C(=O)Nc1ccc(F)cc1C(F)(F)F` [Example 87, (S)-2-Ethyl-N-(4-fluoro-2-(trifluoromethyl)phenyl)-4-(4-(4-fluorophenyl)phthalazin-1-yl)piperazine-1-carboxamide hydrochloride], the inhibition at 3 min, 10 μM was less than 45%.
Still for that read-out and setting: in the case of `CC[C@H]1CN(c2nnc(-c3ccc(F)cc3)c3ccccc23)CCN1C(=O)Nc1ccc(F)cc1` [Example 88, (S)-2-Ethyl-N-(4-fluorophenyl)-4-(4-(4-fluorophenyl)phthalazin-1-yl)piperazine-1-carboxamide hydrochloride] it was less than 45%.
